The values below come from ChEMBL document CHEMBL3352647, “Synthesis and characterization of novel 1,2-oxazine-based small molecules that targets acetylcholinesterase” (Bioorg Med Chem Lett, 2014).

A short description of assay [1]: Inhibition of soybean 5-LOX by spectrophotometry. Also noted: species or system Glycine max.
In the next assay the target is Acetylcholinesterase (Homo sapiens, UniProt P22303). Put plainly: Inhibition of AChE (unknown origin) using ACh chloride as substrate preincubated for 15 mins before substrate addition by Ellman method. (Ellman's reagent forms a yellow product with free thiols.)
Sequence of Acetylcholinesterase (P22303 whole entry): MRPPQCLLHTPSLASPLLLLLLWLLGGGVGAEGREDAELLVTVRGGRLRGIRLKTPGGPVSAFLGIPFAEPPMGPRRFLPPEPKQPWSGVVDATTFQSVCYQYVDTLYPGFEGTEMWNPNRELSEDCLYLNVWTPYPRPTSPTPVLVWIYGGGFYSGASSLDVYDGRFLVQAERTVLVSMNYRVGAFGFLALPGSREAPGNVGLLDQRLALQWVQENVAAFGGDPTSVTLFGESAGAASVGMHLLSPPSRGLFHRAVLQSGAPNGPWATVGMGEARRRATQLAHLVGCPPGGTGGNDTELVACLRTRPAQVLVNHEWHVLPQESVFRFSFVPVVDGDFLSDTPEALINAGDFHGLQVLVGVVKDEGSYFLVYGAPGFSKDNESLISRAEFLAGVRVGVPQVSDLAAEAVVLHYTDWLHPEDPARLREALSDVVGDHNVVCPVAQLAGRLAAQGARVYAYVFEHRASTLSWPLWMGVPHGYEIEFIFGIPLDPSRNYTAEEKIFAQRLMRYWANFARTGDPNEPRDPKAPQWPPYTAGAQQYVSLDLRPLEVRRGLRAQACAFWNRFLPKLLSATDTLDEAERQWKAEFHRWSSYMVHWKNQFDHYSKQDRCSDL

For `COC(=O)C(CC1=NOC(C)(C)C[C@H]1c1ccc(OC)cc1)C(=O)OC`, the IC50 in assay [1] stood at 66.9 µM.

Consider `CC1(C)C[C@@H](c2ccccc2)C(CN2C(=O)c3ccccc3C2=O)=NO1`, for which the IC50 against Acetylcholinesterase is 65.3 µM; in assay [1] it was 30 µM.

In assay [1], `COC(=O)C(CC1=NO[C@@H]2CCCC[C@@H]2[C@H]1c1ccc(OC)cc1)C(=O)OC` gave an IC50 of 33.8 µM.

For the compound `COC(=O)C(CC1=NO[C@@H]2[C@@H]3CC[C@@H](C3)[C@@H]2[C@H]1c1ccccc1)C(=O)OC`, the concentration for half-maximal inhibition (IC50) in assay [1] worked out at 21.1 µM.

Turning to `CC(=O)N1OC(C)(C)CC(c2ccccc2)=C1CN1C(=O)c2ccccc2C1=O`, the IC50 was found to be 2.5 µM against Acetylcholinesterase and 1.88 µM in assay [1].

In the case of `COC(=O)C(CC1=C(c2ccc(OC)cc2)CC(C)(C)ON1C(C)=O)C(=O)OC`, the figures for the IC50 (on Acetylcholinesterase; in assay [1]) were 14.3 µM and 1.23 µM, respectively.

For the compound `COC(=O)C(CC1=C(c2ccccc2)CC(C)(C)ON1C(C)=O)C(=O)OC`, the IC50 against Acetylcholinesterase was 12 µM; in assay [1] it was 6.32 µM.

On Acetylcholinesterase, `COC(=O)C(CC1=C(c2ccc(Cl)cc2)CC(C)(C)ON1C(C)=O)C(=O)OC` had a half-inhibitory concentration (IC50) of 46.8 µM.

For the compound `COC(=O)CC1=NO[C@@H]2CCCC[C@@H]2[C@H]1c1ccccc1`, the IC50 is 35.1 µM at Acetylcholinesterase and 16.1 µM in assay [1].

In the case of `COC(=O)CC1=NO[C@@H]2[C@H]3CC[C@H](C3)[C@@H]2[C@H]1c1ccccc1`, the IC50 at Acetylcholinesterase turned out to be 6.3 µM; in assay [1], 16.7 µM.

Consider `COC(=O)C(CC1=NO[C@@H]2CCCC2[C@H]1c1ccccc1)C(=O)OC` (single isomer, unassigned), for which the IC50 against Acetylcholinesterase worked out at 75.4 µM; in assay [1], 81.7 µM.

In general, IC50 refers to the concentration at which inhibition is half-maximal. Read a low IC50 as higher potency.
